Reference: US11840686B2, “Modulation of prekallikrein (PKK) expression” (Ionis Pharmaceuticals, Inc., priority 2013, dated 2023)
Strand notation (5' to 3'): a small letter for the sugar, then the base; units joined by * are phosphorothioate-linked, units joined directly phosphodiester-linked; [ ] holds rarer units or linkages, { } end groups; capitals alone tell only the bases. e = 2'-O-(2-methoxyethyl) (MOE); [5mC] = 5-methylcytosine; d = 2'-deoxy (DNA)

Assays:
[1] = tested on: human PKK mRNA; test: Dose-dependent antisense inhibition of human PKK in HepaRG cells, 0.19-5.00 uM (Example 5); format: cell-based
Method in brief: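 HepaRG cells (20,000/well) were electroporated with antisense oligonucleotide at 0.19, 0.56, 1.67 and 5.00 μM and treated for about 16 hours. PKK mRNA was quantified by qRT-PCR with primer probe set RTS3454, normalised to RIBOGREEN total RNA, and IC50 was derived per oligonucleotide.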

[2] = tested on: human PKK mRNA; test: Antisense inhibition of human PKK mRNA in HepaRG cells, 5,000 nM (Example 2); format: cell-based; settings: human PKK mRNA, HepaRG cells, 5,000 nM antisense oligonucleotide, Table 18
Method in brief: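 HepaRG cells (20,000/well) electroporated with 5,000 nM MOE gapmer (phosphorothioate backbone, 5-methylcytosines) and harvested after ~24 h. PKK mRNA measured by qRT-PCR with primer probe set RTS3454, normalized to RIBOGREEN total RNA; percent inhibition versus untreated cells.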

[3] = HepaRG cells, electroporation, approximately 16 hours, Table 37
[4] = HepaRG cells, electroporation, approximately 16 hours, Table 40
[5] = 4 point dose response, HepaRG cells, Table 40
[6] = HepaRG cells, electroporation, approximately 16 hours, Table 39
[7] = Table 34, HepaRG, electroporation, ~16 h
[8] = HepaRG cells, electroporation, approximately 16 hours, Table 36

## 548752 (antisense e[5mC]*eA*e[5mC]*eT*dG*dT*dA*d[5mC]*dT*dA*dG*dT*dT*dT*e[5mC]*e[5mC]*eT*eA) [compound 548752]
[1]; [3]
  percent inhibition of PKK at 0.19 μM: 0%
  percent inhibition of PKK at 0.56 μM: 0%
  percent inhibition of PKK at 1.67 μM: 51%
  percent inhibition of PKK at 5.00 μM: 90%
[1]; 4 point dose response, HepaRG cells, Table 37
  IC50: 1900 nM
[2]
  % inhibition: 89%

## 548753 (antisense eT*e[5mC]*eA*e[5mC]*dT*dG*dT*dA*d[5mC]*dT*dA*dG*dT*dT*eT*e[5mC]*e[5mC]*eT) [compound 548753]
[1]; [4]
  percent inhibition of PKK at 0.19 μM: 0%
  percent inhibition of PKK at 0.56 μM: 23%
  percent inhibition of PKK at 1.67 μM: 49%
  percent inhibition of PKK at 5.00 μM: 84%
[1]; [5]
  IC50: 1500 nM
[2]
  % inhibition: 82%

## 548756 (antisense eG*eT*eA*eT*d[5mC]*dA*d[5mC]*dT*dG*dT*dA*d[5mC]*dT*eA*eG*eT*eT) [compound 548756]
[1]; [4]
  percent inhibition of PKK at 0.19 μM: 0%
  percent inhibition of PKK at 0.56 μM: 4%
  percent inhibition of PKK at 1.67 μM: 16%
  percent inhibition of PKK at 5.00 μM: 86%
[1]; [5]
  IC50: > 5000 nM
[2]
  % inhibition: 81%

## 548757 (antisense eA*eG*eT*eA*dT*d[5mC]*dA*d[5mC]*dT*dG*dT*dA*d[5mC]*eT*eA*eG*eT) [compound 548757]
[1]; [6]
  percent inhibition of PKK at 0.19 μM: 18%
  percent inhibition of PKK at 0.56 μM: 49%
  percent inhibition of PKK at 1.67 μM: 82%
  percent inhibition of PKK at 5.00 μM: 93%
[1]; 4 point dose response, HepaRG cells, Table 39
  IC50: 600 nM
[2]
  % inhibition: 87%

## 548758 (antisense e[5mC]*eA*eG*eT*dA*dT*d[5mC]*dA*d[5mC]*dT*dG*dT*dA*e[5mC]*eT*eA*eG) [compound 548758]
[1]; 0.19 0μM, HepaRG cells, electroporation, approximately 16 hours, Table 41
  percent inhibition of PKK at 0.19 0μM: 0%
[1]; 0.56 0μM, HepaRG cells, electroporation, approximately 16 hours, Table 41
  percent inhibition of PKK at 0.56 0μM: 72%
[1]; 1.67 1μM, HepaRG cells, electroporation, approximately 16 hours, Table 41
  percent inhibition of PKK at 1.67 1μM: 79%
[1]; 4 point dose response, HepaRG cells, Table 41
  IC50: 600 nM
[1]; [7]
  percent inhibition of PKK at 0.19 μM: 41%
  percent inhibition of PKK at 0.56 μM: 47%
  percent inhibition of PKK at 1.67 μM: 82%
  percent inhibition of PKK at 5.00 μM: 94%
[1]; Table 34, PKK mRNA, HepaRG, electroporation, ~16 h
  IC50: 400 nM
[2]
  % inhibition: 97%

## 548770 (antisense eT*eA*eA*e[5mC]*dA*dG*dT*dA*dT*d[5mC]*dA*d[5mC]*dT*eG*eT*e[5mC]*e[5mC]) [compound 548770]
[1]; [8]
  percent inhibition of PKK at 0.19 μM: 26%
  percent inhibition of PKK at 0.56 μM: 54%
  percent inhibition of PKK at 1.67 μM: 77%
  percent inhibition of PKK at 5.00 μM: 91%
[1]; 4 point dose response, HepaRG cells, Table 36
  IC50: 500 nM
[1]; HepaRG cells, 0.19 μM antisense oligonucleotide
  percent inhibition of PKK mRNA, 0.19 μM: 9%
[1]; HepaRG cells, 0.56 μM antisense oligonucleotide
  percent inhibition of PKK mRNA, 0.56 μM: 0%
[1]; HepaRG cells, 1.67 μM antisense oligonucleotide
  percent inhibition of PKK mRNA, 1.67 μM: 61%
[1]; HepaRG cells, 5.00 μM antisense oligonucleotide
  percent inhibition of PKK mRNA, 5.00 μM: 92%
[1]; HepaRG cells, 0.19-5.00 μM
  IC50: 1700 nM
[2]
  % inhibition: 92%
